ChEMBL document CHEMBL1201862, “PubChem BioAssay data set” (2004)
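48-hour exposure; five concentrations; linearly interpolated endpoints. GI50 = concentration required for 50% inhibition of growth.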 Calls of active or inactive are those of the source. Rule as the data show it: active = GI50 up to about 1.1 µM and inactive = higher.

Key:
Experiment in all cases: growth of human tumour cells (NCI), 48 h
[1] = tested on: HCT-116
[2] = tested on: EKVX
[3] = tested on: CCRF-CEM
[4] = tested on: HL-60
[5] = tested on: KM-20L2
[6] = tested on: SK-MEL-2
[7] = tested on: U-251
[8] = tested on: A549
[9] = tested on: A498
[10] = tested on: LXFL 529
[11] = tested on: SW-620
[12] = tested on: 786-0
[13] = tested on: SK-MEL-5
[14] = tested on: M14
[15] = tested on: NCI-H522
[16] = tested on: HT-29
[17] = tested on: SF-295
[18] = tested on: RXF 393
[19] = tested on: ACHN
[20] = tested on: NCI-H23
[21] = tested on: LOX IMVI
[22] = tested on: M19-MEL
[23] = tested on: SF-539
[24] = tested on: UO-31
[25] = tested on: UACC-62
[26] = tested on: NCI-H226
[27] = tested on: K562
[28] = tested on: OVCAR-3
[29] = tested on: OVCAR-8
[30] = tested on: SK-MEL-28
[31] = tested on: IGROV-1
[32] = tested on: NCI-H460
[33] = tested on: SNB-78
[34] = tested on: CAKI-1
[35] = tested on: DMS-273
[36] = tested on: SNB-19
[37] = tested on: HOP-92
[38] = tested on: MOLT-4
[39] = tested on: HCT-15
[40] = tested on: Malme-3M
[41] = tested on: TK-10
[42] = tested on: SF-268
[43] = tested on: SNB-75
[44] = tested on: UACC-257
[45] = tested on: OVCAR-5
[46] = tested on: COLO 205
[47] = tested on: HOP-62
[48] = tested on: SN12C
[49] = tested on: XF498
[50] = tested on: OVCAR-4
[51] = tested on: SK-OV-3
[52] = tested on: HCC 2998
[53] = tested on: SR
[54] = tested on: KM12
[55] = tested on: RPMI-8226
[56] = tested on: DLD-1
[57] = tested on: HOP-18

Measured: GI50

CC(=O)Nc1ccc(C(=O)NN2C(=O)C(Cl)C2c2ccc([N+](=O)[O-])cc2)cc1 (stereo not drawn)
> 100 µM: [39]
inactive: [1] > 100 µM | [2] > 100 µM | [3] > 100 µM | [4] > 100 µM | [5] > 100 µM | [6] > 100 µM | [7] > 100 µM | [8] > 100 µM | [9] > 100 µM | [10] > 100 µM | [11] > 100 µM | [12] > 100 µM | [13] > 100 µM | [14] > 100 µM | [15] > 100 µM | [16] > 100 µM | [17] > 100 µM | [18] > 100 µM | [19] > 100 µM | [20] > 100 µM | [21] > 100 µM | [22] > 100 µM | [23] > 100 µM | [24] > 100 µM | [25] > 100 µM | [26] > 100 µM | [27] > 100 µM | [28] > 100 µM | [29] > 100 µM | [30] > 100 µM | [31] > 100 µM | [32] > 100 µM | [33] > 100 µM | [34] > 100 µM | [35] > 100 µM | [36] > 100 µM | [37] > 100 µM | [38] > 100 µM | [40] > 100 µM | [41] > 100 µM | [42] > 100 µM | [43] > 100 µM | [44] > 100 µM | [45] > 100 µM | [46] > 100 µM | [47] > 100 µM | [48] > 100 µM | [49] > 100 µM | [50] > 100 µM | [51] > 100 µM

COC(=O)C(NC(=O)c1ccccc1)C(c1ccc(Cl)cc1)P(=O)(OC)OC (stereo not drawn)
> 100 µM: [39]
inactive: [1] > 100 µM | [2] > 100 µM | [3] > 100 µM | [4] > 100 µM | [5] > 100 µM | [6] > 100 µM | [7] > 100 µM | [8] > 100 µM | [9] > 100 µM | [10] > 100 µM | [11] > 100 µM | [13] > 100 µM | [14] > 100 µM | [52] > 100 µM | [15] > 100 µM | [16] > 100 µM | [17] 97.5 µM | [18] 33.9 µM | [19] > 100 µM | [20] 91.4 µM | [21] > 100 µM | [22] > 100 µM | [23] > 100 µM | [24] > 100 µM | [25] > 100 µM | [26] > 100 µM | [27] > 100 µM | [29] > 100 µM | [30] > 100 µM | [31] > 100 µM | [32] > 100 µM | [33] > 100 µM | [34] > 100 µM | [35] > 100 µM | [36] > 100 µM | [37] > 100 µM | [38] > 100 µM | [41] > 100 µM | [42] > 100 µM | [43] > 100 µM | [44] > 100 µM | [53] > 100 µM | [45] > 100 µM | [46] > 100 µM | [54] > 100 µM | [47] > 100 µM | [55] > 100 µM | [48] > 100 µM | [49] > 100 µM | [56] > 100 µM | [50] > 100 µM | [51] > 100 µM

CC1CN1P1(N2CC2C)=NP(N2CC2C)(N2CC2C)=NP(N2CC2C)(N2CC2C)=N1 (stereo not drawn)
> 50 µM: [39]
inactive: [1] > 50 µM | [2] > 50 µM | [3] > 50 µM | [4] > 50 µM | [5] > 50 µM | [7] > 50 µM | [8] > 50 µM | [9] > 50 µM | [10] > 50 µM | [11] > 50 µM | [12] > 50 µM | [13] > 50 µM | [14] > 50 µM | [52] > 50 µM | [15] > 50 µM | [16] > 50 µM | [17] > 50 µM | [18] > 50 µM | [19] > 50 µM | [20] > 50 µM | [22] > 50 µM | [23] > 50 µM | [24] > 50 µM | [26] > 50 µM | [27] > 50 µM | [28] > 50 µM | [29] > 50 µM | [30] > 50 µM | [31] > 50 µM | [57] > 50 µM | [32] > 50 µM | [34] > 50 µM | [35] > 50 µM | [36] > 50 µM | [37] > 50 µM | [38] > 50 µM | [40] > 50 µM | [41] > 50 µM | [42] > 50 µM | [43] > 50 µM | [53] > 50 µM | [46] > 50 µM | [55] > 50 µM | [48] > 50 µM | [49] > 50 µM | [56] > 50 µM | [50] > 50 µM | [51] > 50 µM
